Like-named read-outs stand apart in the source and are kept apart here.
What was measured:
[1] = after a 40 mg oral dose; range associated with therapeutic response; cited from earlier work
[2] = format: in vivo, human (children 6–17 years); settings: single oral dose 1.2 mg/kg LBW

PAN plasma AUCtot, Mean (SD) ([2]; CYP2C19 genotype *1*1 (n=30)): 10.04 (6.81) µM per mg/kg TBW
PAN plasma AUCtot, Range ([2]; CYP2C19 genotype *1*1 (n=30)): [2.68–33.75] µM per mg/kg TBW
PAN plasma AUCtot, Mean (SD) ([2]; CYP2C19 genotype *1*2 (n=10)): 18.07 (11.20) µM per mg/kg TBW
PAN plasma AUCtot, Range ([2]; CYP2C19 genotype *1*2 (n=10)): [7.36–41.31] µM per mg/kg TBW
PAN plasma AUCtot, Mean (SD) ([2]; CYP2C19 genotype *1*17 (n=16)): 7.84 (4.52) µM per mg/kg TBW
PAN plasma AUCtot, Range ([2]; CYP2C19 genotype *1*17 (n=16)): [2.26–18.59] µM per mg/kg TBW
PAN plasma AUCtot, Mean (SD) ([2]; CYP2C19 genotype *2*2 (n=1)): 226.59 (–) µM per mg/kg TBW
PAN plasma AUCtot, Mean (SD) ([2]; CYP2C19 genotype *2*17 (n=3)): 10.42 (3.40) µM per mg/kg TBW
PAN plasma AUCtot, Range ([2]; CYP2C19 genotype *2*17 (n=3)): [7.71–14.23] µM per mg/kg TBW
PAN plasma AUCtot, Mean (SD) ([2]; CYP2C19 genotype *17*17 (n=1)): 4.18 (–) µM per mg/kg TBW
Compound: COc1ccnc(C[S+]([O-])c2nc3ccc(OC(F)F)cc3[nH]2)c1OC (centres unmarked) [PAN, pantoprazole]
typical therapeutic PAN plasma AUCtot [1]: 7 to 17 µM
